Measured values taken from patent publication US9289447B2, “Chemotherapeutic methods and compositions” (Gilead Biologics, Inc., priority 2009, dated 2016).

Key:
[1] = system: MDA-MB-435 cells; assay: Chemotherapeutic sensitivity of MDA-MB-435 cells on extracellular matrices with anti-LOXL2 antibody; assay type: cell-based, human; details: MDA-MB-435 cells plated on different extracellular matrices
Protocol: (§1) MDA-MB-435 cells (breast adenocarcinoma cell lines, ATCC, Manassas, Va.) are resuspended in medium containing 10-50 μg/mL anti-LOXL2 or control IgG antibody. Cells are seeded into 96 well tissue culture plates (10^3-10^4 cells in 100 μL per well) coated with poly-L-lysine, collagen I, collagen IV, fibronectin, or Matrigel™ (BD Biosciences, San Jose, Calif.). Alternatively, cells are plated in standard 96 well tissue culture plates (Costar, VWR International, West Chester, Pa.). Cells are incubated overnight at 37° C. in a 5% CO2 incubator. After sixteen to twenty hours, various concentrations of cisplatin (DDP), methotrexate, doxorubicin, docetaxel, gemcitabine, or 5-FU are added. Cells are incubated for 3-5 days at 37° C. in a 5% CO2 incubator, and the number of remaining live cells are quantified using the Cell Titer-Glo® luminescent cell viability assay (Promega, Madison, Wis.) according to the manufacturer's instructions. For each condition, samples are assayed in triplicate. The data are analyzed using GraphPad Prism software (or equivalent) to calculate IC50 values from a 4-parameter logistic equation.

[2] = system: Capan-1 cells; assay: Chemotherapeutic sensitivity of Capan-1 cells on extracellular matrices with anti-LOXL2 antibody; assay type: cell-based; details: Capan-1 cells plated on different extracellular matrices
Protocol: as §1, with “Panc-1 or Capan-1” for “MDA-MB-435”, “(pancreas” for “(breast”, “gemcitabine, docetaxel,” for “cisplatin (DDP), methotrexate,”, “5-FU” for “docetaxel, gemcitabine,”, “erlotinib” for “5-FU”

[3] = system: Panc-1 cells; assay: Chemotherapeutic sensitivity of Panc-1 cells on extracellular matrices with anti-LOXL2 antibody; assay type: cell-based; details: Panc-1 cells plated on different extracellular matrices
Protocol: as §1, with “Panc-1 or Capan-1” for “MDA-MB-435”, “(pancreas” for “(breast”, “gemcitabine, docetaxel,” for “cisplatin (DDP), methotrexate,”, “5-FU” for “docetaxel, gemcitabine,”, “erlotinib” for “5-FU”

[4] = system: MDA231 cells; assay: Erlotinib sensitivity (live cell number) of siRNA-transfected MDA231 cells; assay type: cell-based, human; details: for effect of siRNA transfection on sensitivity of the cells to erlotinib: MDA 231 cells grown on collagen, 5 days exposure to erlotinib; for effect of siRNA on sensitivity of the cells to erlotinib: MDA 231 cells grown on tissue culture plastic, separate experiments
Protocol: Cells from each of the four aforementioned lines were seeded at 3,000 cells per well in 96-well plates (VWR International, West Chester, Pa.), and cultured in Dulbecco's Modified Eagle's Medium supplemented with 10% fetal bovine serum (DMEM/FBS) at 37° C., 5% CO2 and atmospheric oxygen. Cells were cultured either in untreated wells or in collagen-coated wells, obtained or prepared as described above. Twenty-four hours later, medium was replaced with fresh medium containing various concentrations of erlotinib (LC Laboratories, Woburn, Mass.), cisplatin (Calbiochem, Gibbstown, N.J.) or methotrexate (Calbiochem, Gibbstown, N.J.). After 5 days' culture in the presence of the drug, live cell numbers were determined using the Cell Titer-Glo® luminescent cell viability assay (Promega, San Luis Obispo, Calif.) according to the manufacturer's instructions. For each cell line, three samples were assayed at each drug concentration.
(§2) MDA231 cells were seeded at 7,500 cells per well in 96-well plates (VWR International, West Chester, Pa.) in DMEM/FBS at 37° C., 5% CO2 and atmospheric oxygen. Cells were transfected at the time of seeding with […] RNA oligonucleotide, using the Dharmafect transfection reagent according to the manufacturer's instructions (Thermo Scientific, Lafayette, Colo.). Twenty-four hours later, the medium was replaced with medium containing various concentrations of erlotinib (LC Laboratories, Woburn, Mass.). After 5 days continuous exposure to drug, live cell number was determined as described in Example 1. For each condition, (LOX siRNA, LOXL2 siRNA, or non-targeting siRNA), three samples were assayed at each drug concentration. In addition, levels of mRNAs encoding LOX and LOXL 2 were determined in the in the samples transfected with the LOX- and LOXL2-targeted siRNAs, and normalized to levels of RPL19 mRNA (which encodes a ribosomal protein).

[5] = system: LOXL2 mRNA; assay: Quantitative PCR of LOXL2 mRNA in siRNA-transfected MDA 231 cells; assay type: cell-based, human; details: normalized to RPL19 mRNA, compared to non-targeting siRNA, FIG. 13
Protocol: as §2, with “For each condition, (LOX siRNA, LOXL2 siRNA, or non-targeting siRNA), three samples were assayed at each drug concentration.” left out
(§3) For RNA analysis, mRNA was harvested using an RNEasy Mini kit (Qiagen, Valencia, Calif.) according to the manufacturer's instructions. A quantitative PCR reaction was assembled using the Brilliant II Core reagent kit according to the manufacturer's instructions (Agilent Technologies, Cedar Creek, Tex.). The quantitative PCR reaction cycle was as follows: 30 min at 50° C., 10 min at 95° C. and 40 cycles of 15 sec at 95° C. in combination with 1 min at 60° C.

[6] = system: LOX mRNA; assay: Quantitative PCR of LOX mRNA in siRNA-transfected MDA 231 cells; assay type: cell-based, human; details: normalized to RPL19 mRNA, compared to non-targeting siRNA, FIG. 13
Protocol: as §2, with “For each condition, (LOX siRNA, LOXL2 siRNA, or non-targeting siRNA), three samples were assayed at each drug concentration.” left out
as §3

[7] = target: T1, LOXL2 (Homo sapiens, UniProt Q9Y4K0); details: as disclosed in US 2009/0053224; cited from earlier work
T1 sequence (Q9Y4K0 26-774): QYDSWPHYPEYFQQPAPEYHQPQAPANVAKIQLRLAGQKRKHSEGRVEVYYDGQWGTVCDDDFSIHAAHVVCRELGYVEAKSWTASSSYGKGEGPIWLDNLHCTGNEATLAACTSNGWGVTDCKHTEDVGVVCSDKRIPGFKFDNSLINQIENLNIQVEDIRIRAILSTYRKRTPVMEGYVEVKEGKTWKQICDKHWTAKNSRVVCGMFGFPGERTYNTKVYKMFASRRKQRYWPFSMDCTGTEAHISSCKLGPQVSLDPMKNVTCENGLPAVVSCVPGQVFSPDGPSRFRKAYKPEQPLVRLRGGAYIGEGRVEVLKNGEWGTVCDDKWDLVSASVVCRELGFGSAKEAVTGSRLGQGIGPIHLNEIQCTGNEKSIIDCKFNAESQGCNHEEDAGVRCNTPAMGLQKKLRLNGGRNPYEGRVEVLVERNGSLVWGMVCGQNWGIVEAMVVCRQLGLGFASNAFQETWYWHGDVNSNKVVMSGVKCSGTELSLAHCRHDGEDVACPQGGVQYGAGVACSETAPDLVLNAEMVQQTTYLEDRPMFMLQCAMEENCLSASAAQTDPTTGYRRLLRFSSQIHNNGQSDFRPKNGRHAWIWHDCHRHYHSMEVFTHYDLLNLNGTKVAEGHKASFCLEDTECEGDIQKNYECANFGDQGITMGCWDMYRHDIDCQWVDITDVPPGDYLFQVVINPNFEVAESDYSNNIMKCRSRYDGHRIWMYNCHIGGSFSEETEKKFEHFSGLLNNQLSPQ

[8] = target: T1, LOXL2; details: as disclosed in US 2009/0053224; cited from earlier work; remark: listed apart in the source

## COc1cccc2c1C(=O)c1c(O)c3c(c(O)c1C2=O)C[C@@](O)(C(=O)CO)C[C@@H]3O[C@H]1C[C@H](N)[C@H](O)[C@H](C)O1 [doxorubicin]
[1]
  sensitivity of cells to the chemotherapeutic in the presence of anti-LOXL2 antibodies: increased sensitivity
[2]
  sensitivity of cells to the chemotherapeutic in the presence of anti-LOXL2 antibodies: increased sensitivity
[3]
  sensitivity of cells to the chemotherapeutic in the presence of anti-LOXL2 antibodies: increased sensitivity

## C#Cc1cccc(Nc2ncnc3cc(OCCOC)c(OCCOC)cc23)c1 [erlotinib, N-(3-ethynylphenyl)-6,7-bis(2-methoxyethoxy)quinazolin-4-amine]
[4]; MDA 231 cells on collagen matrix, transfected with siRNA nonhomologous to LOX or LOXL2, FIG. 14
  killing of cells by erlotinib: resistant to killing
[2]
  sensitivity of cells to the chemotherapeutic in the presence of anti-LOXL2 antibodies: increased sensitivity
[3]
  sensitivity of cells to the chemotherapeutic in the presence of anti-LOXL2 antibodies: increased sensitivity

## Nc1ccn([C@@H]2O[C@H](CO)[C@@H](O)C2(F)F)c(=O)n1 [gemcitabine]
[1]
  sensitivity of cells to the chemotherapeutic in the presence of anti-LOXL2 antibodies: increased sensitivity
[2]
  sensitivity of cells to the chemotherapeutic in the presence of anti-LOXL2 antibodies: increased sensitivity
[3]
  sensitivity of cells to the chemotherapeutic in the presence of anti-LOXL2 antibodies: increased sensitivity

## N.N.[Cl][Pt][Cl] [cisplatin (DDP), cis-diaminedichloroplatinum(II)]
[1]
  sensitivity of cells to the chemotherapeutic in the presence of anti-LOXL2 antibodies: increased sensitivity

## LOXL2-targeted siRNA: siRNA homologous to the second SRCR domain of LOXL2, from Invitrogen: UCAACGAAUUGUCAAAUUUGAACCC (listed as RNA, chemistry not given here)
[5]
  reduction of levels of LOXL2 mRNA: five-fold
[4]; FIG. 14
  effect of siRNA transfection on sensitivity of the cells to erlotinib: greatly increased sensitivity
[4]
  effect of siRNA on sensitivity of the cells to erlotinib: little or no effect

## LOX-targeted siRNA: short RNA homologous to regions near the 3' end of LOX mRNA, from Invitrogen: ACAGGGAUUGAGUCCUGGCUGUUAU (listed as RNA, chemistry not given here)
[4]; FIG. 14
  effect of siRNA transfection on sensitivity of the cells to erlotinib: greatly increased sensitivity
[4]
  effect of siRNA on sensitivity of the cells to erlotinib: little or no effect
[6]
  reduction of levels of LOX mRNA: over two-fold

## CN(Cc1cnc2nc(N)nc(N)c2n1)c1ccc(C(=O)N[C@@H](CCC(=O)O)C(=O)O)cc1 [methotrexate]
[1]
  sensitivity of cells to the chemotherapeutic in the presence of anti-LOXL2 antibodies: increased sensitivity

## CC(=O)O[C@@]12CO[C@@H]1C[C@H](O)[C@@]1(C)C(=O)[C@H](O)C3=C(C)[C@@H](OC(=O)[C@H](O)[C@@H](NC(=O)OC(C)(C)C)c4ccccc4)C[C@@](O)([C@@H](OC(=O)c4ccccc4)[C@H]21)C3(C)C [docetaxel]
[1]
  sensitivity of cells to the chemotherapeutic in the presence of anti-LOXL2 antibodies: increased sensitivity
[2]
  sensitivity of cells to the chemotherapeutic in the presence of anti-LOXL2 antibodies: increased sensitivity
[3]
  sensitivity of cells to the chemotherapeutic in the presence of anti-LOXL2 antibodies: increased sensitivity

## O=c1[nH]cc(F)c(=O)[nH]1 [5-FU, 5-fluorouracil]
[1]
  sensitivity of cells to the chemotherapeutic in the presence of anti-LOXL2 antibodies: increased sensitivity
[2]
  sensitivity of cells to the chemotherapeutic in the presence of anti-LOXL2 antibodies: increased sensitivity
[3]
  sensitivity of cells to the chemotherapeutic in the presence of anti-LOXL2 antibodies: increased sensitivity

B1: M20: monoclonal anti-LOXL2 antibody described in co-owned US 2009/0053224; variable regions SEQ ID NO: 12 and 13 (antibody, V domains shown)
VH: MEWSRVFIFLLSVTAGVHSQVQLQQSGAELVRPGTSVKVSCKASGYAFTYYLIEWVKQRPGQGLEWIGVINPGSGGTNYNEKFKGKATLTADKSSSTAYMQLSSLTSDDSAVYFCARNWMNFDYWGQGTTLTVSS
VL: MRCLAEFLGLLVLWIPGAIGDIVMTQAAPSVSVTPGESVSISCRSSKSLLHSNGNTYLYWFLQRPGQSPQFLIYRMSNLASGVPDRFSGSGSGTAFTLRISRVEAEDVGVYYCMQHLEYPYTFGGGTKLEIK
[7]
  extent of inhibition of LOXL2 enzymatic activity: partial inhibitor
  mode of inhibition of LOXL2 enzymatic activity: non-competitive inhibitor
[8]
  binding site on LOXL2: binds to the SRCR3-4 domain of LOXL2
